Test system: HCV replicon-containing cells (Huh7/Clone A)
Assay: HCV Replicon Assay
Format: cell-based
Conditions: Hepatitis C virus, Huh-7, 48 hours incubation, HCV replicon RNA by RT-qPCR normalized to total RNA, read-out: IC50 of inhibition of HCV replication
From the text: The HCV replicon assay is a cell-culture system that mimics in vivo HCV replication and provides a system to study HCV replication in vitro. It was created by transfecting cloned viral RNA derived from a consensus HCV genomic sequence into human Huh7 hepatoma cells that are semi-permissive for viral RNA production (Lohmann V., Korner F., Koch J.-O., Herian U., Theilmann L. and Bartenschlager R. (1999). Replication of subgenomic Hepatitis C virus RNAs in a hepatoma cell line. Science 285, 110-113 and Blight K. J., Kolykhalov A. A. and Rice C. M. (2000). Efficient initiation of HCV RNA Replication in cell culture. Science 290, 972-1974). […] Replicon-containing cells autonomously and persistently replicate HCV RNA that can be measured quantitatively by real-time qPCR. Therefore, the replicon system facilitates quantitative assessment of anti-viral activity by monitoring changes in HCV RNA replication in a cell-based assay. […]
Total RNA eluted in 130 μl of RNase-freed H2O was quantitated by the RiboGreen Assay according to the supplier's protocol (Molecular Probe). […] RNA samples in the black microplate were mixed with 95 μl of diluted RiboGreen reagent (1:250 dilution in TE buffer) and sample fluorescence was measured using a fluorescence microplate reader at standard fluorescein wavelengths (excitation ˜480 nm, emission ˜520 nm). […]

With `O=C(OCc1ccc(Cl)cc1)c1cn(Cc2ccc(Cl)cc2)c2cc(N3CCNCC3)c(F)cc2c1=O` [Compound 1, 1-(4-chlorobenzyl)-6-fluoro-4-oxo-7-piperazin-1-yl-1,4-dihydro-quinoline-3-carboxylic acid 4-chlorobenzyl ester] as the molecule, how does the IC50 read?
Its IC50 is less than 5 µM.

Reference: patent US20070032522A1, “Antiviral agents” (priority 2005, published 2007)
